Tests used:
PFKM = target: T1, PFKM (Homo sapiens, UniProt P08237); assay: direct labeling of recombinantly expressed proteins by gel-based ABPP (WT vs lysine mutant); assay type: binding; settings: PFKM K678, KR mutant; 10 μM probe, 1 h
T1 construct: expressed in transfected cells; host or cells: HEK 293T
T1 sequence (P08237 1-780): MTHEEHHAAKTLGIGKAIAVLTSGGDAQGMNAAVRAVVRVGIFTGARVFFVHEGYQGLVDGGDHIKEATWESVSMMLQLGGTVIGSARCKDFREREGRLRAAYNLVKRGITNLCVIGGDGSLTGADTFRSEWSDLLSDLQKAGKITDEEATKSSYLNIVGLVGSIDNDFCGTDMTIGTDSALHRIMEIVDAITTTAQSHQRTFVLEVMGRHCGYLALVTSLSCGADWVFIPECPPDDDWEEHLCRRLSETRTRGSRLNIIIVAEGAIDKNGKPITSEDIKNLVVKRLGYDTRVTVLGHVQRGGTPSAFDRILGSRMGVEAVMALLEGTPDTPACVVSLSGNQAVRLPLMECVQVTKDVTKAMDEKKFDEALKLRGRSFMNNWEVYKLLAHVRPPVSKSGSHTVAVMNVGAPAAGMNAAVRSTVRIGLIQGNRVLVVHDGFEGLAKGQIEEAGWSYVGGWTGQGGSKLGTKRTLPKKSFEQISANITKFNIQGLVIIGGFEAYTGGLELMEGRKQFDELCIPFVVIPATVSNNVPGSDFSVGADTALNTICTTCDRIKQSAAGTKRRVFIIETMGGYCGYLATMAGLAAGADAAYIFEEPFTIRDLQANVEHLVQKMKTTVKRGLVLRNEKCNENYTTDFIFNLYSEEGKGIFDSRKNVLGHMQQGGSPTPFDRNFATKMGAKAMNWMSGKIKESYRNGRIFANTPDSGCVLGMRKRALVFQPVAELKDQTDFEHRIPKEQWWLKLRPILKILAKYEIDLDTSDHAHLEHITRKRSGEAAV
Excerpt: (§1) Subcloning and mutagenesis. Unless noted below, genes were amplified from cDNA prepared from low passage HEK 293T cells using the Ribozol RNA extraction reagent (Amresco) and the iScript Reverse Transcription Supermix kit (Bio-Rad). For the following proteins cDNA clones were used for amplification instead: PFKP (5180268, Dharmacon), HK1 (BC008730, transomic), SIN3A (BC137098, transomic), G6PD (BC000337, transomic) and TGIF1 (BC031268, transomic). Mouse CARM1 in pFLAG-CMV-6c was a kind gift from the Mowen lab (TSRI). NUDT2 was obtained as synthesized gene (IDT). DNA was amplified with custom forward and reverse primers using phusion polymerase (NEB, M0530S), digested with the indicated restriction enzyme and ligated into pFLAG-CMV-6c or pRK5 with the appropriate affinity tag. Lysine mutants were generated using QuikChange site-directed mutagenesis using Phusion® High-Fidelity DNA Polymerase and primers containing the desired mutations and their respective complements. The cloning of TTR and its K35A mutant has been described in Choi et al., “Chemoselective small molecules that covalently modify one lysine in a non-enzyme protein in plasma,” Nat. Chem. Biol. 6, 133-139 (2010). TTR was expressed in E. coli and purified as described. For gel-based experiments 1 μM TTR was added into 1 mg ml^−1 soluble MDA-MB-231 lysate.
(§2) Recombinant expression of proteins by transient transfection. HEK 293T cells were grown to 50% confluency in 10 ml DMEM supplemented with 10% fetal bovine serum (FBS), penicillin, streptomycin and glutamine in 10 cm tissue culture dishes. 3 μg of DNA was diluted in 500 μL DMEM and 30 μL of PEI (MW 40,000, 1 mg ml^−1, Polysciences) were added. The mixture was incubated at room temperature for 30 min and added dropwise to the cells. Cells were grown for 48 h at 37° C. with 5% CO2. Cells were washed with cold PBS, scraped with cold PBS and cell pellets were isolated by centrifugation (1,400 g, 3 min, 4° C.), and stored at −80° C. until use. Cell pellets were resuspended in PBS, lysed by sonication and fractionated (100,000 g, 45 min) to yield soluble and membrane fractions. The soluble fraction was adjusted to a final protein concentration of 1 mg ml^−1 for gel-based ABPP experiments.
(§3) Direct labeling of recombinantly expressed proteins by gel-based ABPP. 50 μL of soluble HEK 293T proteome (1 mg ml^−1) expressing the respective protein (WT or KR mutant) or transfected with an empty vector were treated with 10 μM of the indicated probe for 1 h at room temperature. The samples were analyzed as described in the previous section. For quantification of relative labeling of the different protein variants, the intensity of labeling was determined by quantifying the integrated optical intensity of the bands using ImageLab 5.2.1 software (BioRad).

PFKP = target: T2, PFKP (Homo sapiens, UniProt Q01813); assay: as above; assay type: binding; settings: PFKP K688, KR mutant; 10 μM probe, 1 h
T2 construct: Flag; expressed in transfected cells; host or cells: HEK 293T, transient transfection, soluble lysate; cDNA clone 5180268 (Dharmacon)
T2 sequence (Q01813 1-784): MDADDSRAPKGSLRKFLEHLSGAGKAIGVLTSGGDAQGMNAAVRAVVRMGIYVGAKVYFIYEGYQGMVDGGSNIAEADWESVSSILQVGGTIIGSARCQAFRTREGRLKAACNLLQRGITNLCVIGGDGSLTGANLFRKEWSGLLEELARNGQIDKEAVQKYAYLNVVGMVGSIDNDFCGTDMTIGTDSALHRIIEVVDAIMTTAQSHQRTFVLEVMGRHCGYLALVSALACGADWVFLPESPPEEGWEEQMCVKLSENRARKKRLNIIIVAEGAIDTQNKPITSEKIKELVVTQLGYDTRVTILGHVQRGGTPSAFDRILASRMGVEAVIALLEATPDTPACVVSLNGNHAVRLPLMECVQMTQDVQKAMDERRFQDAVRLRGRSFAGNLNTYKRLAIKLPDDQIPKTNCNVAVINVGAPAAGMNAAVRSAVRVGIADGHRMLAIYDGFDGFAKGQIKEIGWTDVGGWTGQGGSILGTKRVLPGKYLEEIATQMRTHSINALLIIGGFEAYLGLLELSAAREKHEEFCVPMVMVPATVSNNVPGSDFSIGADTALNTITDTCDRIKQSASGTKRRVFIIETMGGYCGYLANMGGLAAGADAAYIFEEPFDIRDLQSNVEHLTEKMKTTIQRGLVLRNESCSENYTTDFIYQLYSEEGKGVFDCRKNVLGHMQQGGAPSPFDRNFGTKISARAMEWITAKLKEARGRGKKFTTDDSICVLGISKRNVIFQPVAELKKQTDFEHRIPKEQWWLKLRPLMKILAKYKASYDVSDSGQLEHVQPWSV
Excerpt: as §1, §2, §3

Compound | labeling of WT vs mutant protein by probe (PFKM) | labeling of WT vs mutant protein by probe (PFKP)
C#CCCC(=O)Oc1c(F)c(F)c(S(=O)(=O)[O-])c(F)c1F.[Na+] [probe 1, reference compound] | HD (the WT labeled more than the mutant (>4x difference quantified)) | HD (the WT labeled more than the mutant (>4x difference quantified))
C#CCCC(=O)Oc1c(F)c(F)c(F)c(F)c1F [probe 6, Pentafluorophenyl 4-pentynoate] | ND (the WT did not label more than the mutant (<2x difference quantified)) | HD (the WT labeled more than the mutant (>4x difference quantified))
C#Cc1ccc(C(=O)Oc2ccccc2[N+](=O)[O-])cc1 [probe 10, 2-Nitrophenyl 4-ethynylbenzoate] | PD (the WT labeled more than the mutant (>2x difference quantified)) | HD (the WT labeled more than the mutant (>4x difference quantified))
C#Cc1ccc(C(=O)Oc2c(F)c(F)cc(F)c2F)cc1 [probe 12, 2,3,5,6-Tetrafluorophenyl 4-ethynylbenzoate] | PD (the WT labeled more than the mutant (>2x difference quantified)) | HD (the WT labeled more than the mutant (>4x difference quantified))
C#Cc1ccc(C(=O)Oc2c(F)c(F)c(F)c(F)c2F)cc1 [probe 13, Pentafluorophenyl 4-ethynylbenzoate] | PD (the WT labeled more than the mutant (>2x difference quantified)) | HD (the WT labeled more than the mutant (>4x difference quantified))
Cc1cc(C)n2c1C=C1C=CC(CCC(=O)Oc3c(F)c(F)c(S(=O)(=O)[O-])c(F)c3F)=[N+]1[B-]2(F)F.[Na+] [probe 18, reference compound] | PD (the WT labeled more than the mutant (>2x difference quantified)) | PD (the WT labeled more than the mutant (>2x difference quantified))

From US20210255193A1, “LYSINE REACTIVE PROBES AND USES THEREOF” (The Scripps Research Institute, priority 2017, published 2021)
